ChEMBL document CHEMBL5143615, “Novel 2-aryl-4-aryloxyquinoline-based fungistatics for Mucor circinelloides. Biological evaluation of activity, QSAR and docking study” (Bioorg Med Chem Lett, 2022)
≈ marks a conversion by molar mass, not a printed value. Calls of active or inactive are those of the source. The calls are words filed in the database; no cut-off is given here.

Assays:
Mucor circinelloides [1] = test: Antifungal activity against Mucor circinelloides M5 strain assessed as reduction in fungal growth by broth dilution method; assay type: functional
Aspergillus niger = test: Antifungal activity against Aspergillus niger clinical isolate 1 assessed as reduction in fungal growth by broth dilution method; assay type: functional
Epidermophyton floccosum = test: Antifungal activity against Epidermophyton floccosum clinical isolate 1 assessed as reduction in fungal growth by broth dilution method; assay type: functional
Mucor circinelloides [2] = test: Antifungal activity against Mucor circinelloides M5 strain assessed as non-germinated spores at 100 to 150 ug/ml by microscopic analysis; assay type: functional, organism-based; settings: dose 100-150 µg/ml
Mucor circinelloides [3] = test: Antifungal activity against Mucor circinelloides R7B wild type strain assessed as reduction in spore germination at 150 ug/ml relative to control; assay type: functional; design: scale not given: the % may be the effect or the level left; settings: dose 150 µg/ml
Microsporum canis [4] = test: Antifungal activity against Microsporum canis clinical isolate 1 assessed as reduction in fungal growth by broth dilution method; assay type: functional
Mucor circinelloides [5] = test: Antifungal activity against Mucor circinelloides R7B wild type strain assessed as non-germinated spores and undifferentiated hyphae at 50 ug/ml by microscopic analysis; assay type: functional, organism-based; settings: dose 50.0 µg/ml
Microsporum canis [6] = test: Antifungal activity against Microsporum canis clinical isolate 2 assessed as reduction in fungal growth by broth dilution method; assay type: functional
[7] = Cytotoxicity against mouse NIH/3T3 cells assessed as reduction in cell viability at 150 ug/ml incubated for 48 hrs by MTT assay (reference value: 93.8 +/- 4.9 %); assay type: toxicity, cell-based, NIH3T3; settings: at 150 µg/mL, read-out: Activity
Trichophyton rubrum [8] = test: Antifungal activity against Trichophyton rubrum clinical isolate 2 assessed as reduction in fungal growth by broth dilution method; assay type: functional
[9] = target: T1, Lanosterol 14-alpha demethylase (Mus musculus, UniProt Q8K0C4); test: Inhibition of CYP51 in mouse NIH/3T3 cells assessed as specific enzymatic activity at 150 ug/ml incubated for 48 hrs by ELISA analysis; assay type: ADME, cell-based; settings: nih/3t3, 48 h, dose 150 µg/ml
T1 sequence (Q8K0C4 whole entry): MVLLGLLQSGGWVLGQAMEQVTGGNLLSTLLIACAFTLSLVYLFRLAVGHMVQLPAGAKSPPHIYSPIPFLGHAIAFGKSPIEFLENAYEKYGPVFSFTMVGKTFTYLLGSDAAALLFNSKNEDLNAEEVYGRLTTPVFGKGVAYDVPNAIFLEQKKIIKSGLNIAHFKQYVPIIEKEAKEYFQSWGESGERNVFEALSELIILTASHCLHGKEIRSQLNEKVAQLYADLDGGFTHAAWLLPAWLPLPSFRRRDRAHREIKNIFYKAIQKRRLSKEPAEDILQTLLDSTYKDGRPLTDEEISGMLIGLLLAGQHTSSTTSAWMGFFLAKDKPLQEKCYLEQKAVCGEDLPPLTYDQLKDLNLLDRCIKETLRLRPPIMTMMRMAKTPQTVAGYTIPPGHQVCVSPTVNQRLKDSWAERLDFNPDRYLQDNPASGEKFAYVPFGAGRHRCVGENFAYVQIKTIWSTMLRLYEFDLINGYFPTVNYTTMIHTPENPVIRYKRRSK

Mucor circinelloides [10] = test: Antifungal activity against Mucor circinelloides R7B wild type strain assessed as reduction in spore germination at 100 ug/ml relative to control; assay type: functional; design: scale not given: the % may be the effect or the level left; settings: dose 100 µg/ml
[11] = Cytotoxicity against mouse NIH/3T3 cells assessed as reduction in cell viability at 100 ug/ml incubated for 48 hrs by MTT assay (reference value: 93.8 +/- 4.9 %); assay type: toxicity, cell-based, NIH3T3; settings: at 100 µg/mL, read-out: Activity
Mucor circinelloides [12] = test: Antifungal activity against Mucor circinelloides M5 strain assessed as reduction in spore germination at 150 ug/ml relative to control; assay type: functional; design: scale not given: the % may be the effect or the level left; settings: dose 150 µg/ml
[13] = test system: Trichophyton mentagrophytes; test: Antifungal activity against Trichophyton mentagrophytes clinical isolate 2 assessed as reduction in fungal growth by broth dilution method; assay type: functional
[14] = target: T1, Lanosterol 14-alpha demethylase; test: Inhibition of CYP51 in mouse NIH/3T3 cells assessed as specific enzymatic activity at 200 ug/ml incubated for 48 hrs by ELISA analysis; assay type: ADME, cell-based; settings: nih/3t3, 48 h, dose 200 µg/ml
Mucor circinelloides [15] = test: Antifungal activity against Mucor circinelloides M5 strain assessed as complete absence of mycelia at 100 to 150 ug/ml by microscopic analysis; assay type: functional, organism-based; settings: dose 100-150 µg/ml
Mucor circinelloides [16] = test: Antifungal activity against Mucor circinelloides R7B wild type strain assessed as complete absence of mycelia at 100 to 150 ug/ml by microscopic analysis; assay type: functional, organism-based; settings: dose 100-150 µg/ml
Mucor circinelloides [17] = test: Antifungal activity against Mucor circinelloides R7B wild type strain assessed as reduction in fungal growth by broth dilution method; assay type: functional
Mucor circinelloides [18] = test: Antifungal activity against Mucor circinelloides M5 strain assessed as few mycelia with several spores at 50 ug/ml by microscopic analysis; assay type: functional, organism-based; settings: dose 50.0 µg/ml
Trichophyton rubrum [19] = test: Antifungal activity against Trichophyton rubrum clinical isolate 1 assessed as reduction in fungal growth by broth dilution method; assay type: functional
[20] = target: T1, Lanosterol 14-alpha demethylase; test: Inhibition of CYP51 in mouse NIH/3T3 cells assessed as specific enzymatic activity at 25 ug/ml incubated for 48 hrs by ELISA analysis; assay type: ADME, cell-based; settings: nih/3t3, 48 h, dose 25 µg/ml
Nannizzia gypsea [21] = test: Antifungal activity against Microsporum gypseum clinical isolate 2 assessed as reduction in fungal growth by broth dilution method; assay type: functional
[22] = target: T1, Lanosterol 14-alpha demethylase; test: Inhibition of CYP51 in mouse NIH/3T3 cells assessed as specific enzymatic activity at 100 ug/ml incubated for 48 hrs by ELISA analysis; assay type: ADME, cell-based; settings: nih/3t3, 48 h, dose 100 µg/ml
Mucor circinelloides [23] = test: Antifungal activity against Mucor circinelloides R7B wild type strain assessed as non-germinated spores at 100 to 150 ug/ml by microscopic analysis; assay type: functional, organism-based; settings: dose 100-150 µg/ml
[24] = Cytotoxicity against mouse NIH/3T3 cells assessed as reduction in cell viability at 50 ug/ml incubated for 48 hrs by MTT assay (reference value: 93.8 +/- 4.9 %); assay type: toxicity, cell-based, NIH3T3; settings: at 50 µg/mL, read-out: Activity
Mucor circinelloides [25] = test: Antifungal activity against Mucor circinelloides M5 strain assessed as reduction in spore germination at 50 ug/ml relative to control; assay type: functional; design: scale not given: the % may be the effect or the level left; settings: dose 50 µg/ml
Mucor circinelloides [26] = test: Antifungal activity against Mucor circinelloides R7B wild type strain assessed as reduction in spore germination at 50 ug/ml relative to control; assay type: functional; design: scale not given: the % may be the effect or the level left; settings: dose 50 µg/ml
Mucor circinelloides [27] = test: Antifungal activity against Mucor circinelloides M5 strain assessed as non-germinated spores and undifferentiated hyphae at 50 ug/ml by microscopic analysis; assay type: functional, organism-based; settings: dose 50.0 µg/ml
Mucor circinelloides [28] = test: Antifungal activity against Mucor circinelloides M5 strain assessed as reduction in spore germination at 25 ug/ml relative to control; assay type: functional; design: scale not given: the % may be the effect or the level left; settings: dose 25 µg/ml
Aspergillus nidulans [29] = test: Antifungal activity against Aspergillus nidulans clinical isolate 1 assessed as reduction in fungal growth by broth dilution method; assay type: functional
[30] = test system: Trichophyton mentagrophytes; test: Antifungal activity against Trichophyton mentagrophytes clinical isolate 3 assessed as reduction in fungal growth by broth dilution method; assay type: functional
Nannizzia gypsea [31] = test: Antifungal activity against Microsporum gypseum clinical isolate 1 assessed as reduction in fungal growth by broth dilution method; assay type: functional
Aspergillus nidulans [32] = test: Antifungal activity against Aspergillus nidulans clinical isolate 2 assessed as reduction in fungal growth by broth dilution method; assay type: functional
[33] = Cytotoxicity against mouse NIH/3T3 cells assessed as reduction in cell viability at 200 ug/ml incubated for 48 hrs by MTT assay (reference value: 93.8 +/- 4.9 %); assay type: toxicity, cell-based, NIH3T3; settings: at 200 µg/mL, read-out: Activity
Mucor circinelloides [34] = test: Antifungal activity against Mucor circinelloides M5 strain assessed as reduction in spore germination at 100 ug/ml relative to control; assay type: functional; design: scale not given: the % may be the effect or the level left; settings: dose 100 µg/ml
[35] = test system: Trichophyton mentagrophytes; test: Antifungal activity against Trichophyton mentagrophytes clinical isolate 1 assessed as reduction in fungal growth by broth dilution method; assay type: functional
Mucor circinelloides [36] = test: Antifungal activity against Mucor circinelloides R7B wild type strain assessed as few mycelia with several spores at 50 ug/ml by microscopic analysis; assay type: functional, organism-based; settings: dose 50.0 µg/ml
Microsporum canis [37] = test: Antifungal activity against Microsporum canis clinical isolate 3 assessed as reduction in fungal growth by broth dilution method; assay type: functional
[38] = target: T1, Lanosterol 14-alpha demethylase; test: Inhibition of CYP51 in mouse NIH/3T3 cells assessed as specific enzymatic activity at 50 ug/ml incubated for 48 hrs by ELISA analysis; assay type: ADME, cell-based; settings: nih/3t3, 48 h, dose 50 µg/ml
Mucor circinelloides [39] = test: Antifungal activity against Mucor circinelloides R7B wild type strain assessed as reduction in spore germination at 25 ug/ml relative to control; assay type: functional; design: scale not given: the % may be the effect or the level left; settings: dose 25 µg/ml
[40] = Cytotoxicity against mouse NIH/3T3 cells assessed as reduction in cell viability at 25 ug/ml incubated for 48 hrs by MTT assay (reference value: 93.8 +/- 4.9 %); assay type: toxicity, cell-based, NIH3T3; settings: at 25 µg/mL, read-out: Activity

Work on `Fc1cc(F)cc(-c2cc(Oc3ccccc3)c3ccccc3n2)c1` yielded an MIC (Mucor circinelloides [1]) of 100 µg/mL (≈ 300 µM), an MIC (Aspergillus niger) of 150 µg/mL (≈ 450 µM) and an MIC (Epidermophyton floccosum) of 125 µg/mL (≈ 375 µM). The Activity (Mucor circinelloides [2]) was “Active”, the Activity (Mucor circinelloides [3]) was 1.7% and the MIC (Microsporum canis [4]) was 100 µg/mL (≈ 300 µM). The Activity (Mucor circinelloides [5]) was “Active”, the MIC (Microsporum canis [6]) was 100 µg/mL (≈ 300 µM) and the viability at 48 h, 150 ug/ml [7] was 15%. For the same compound, the MIC (Trichophyton rubrum [8]) was 125 µg/mL (≈ 375 µM), the Activity [9] was 3.28 U/mg and the Activity (Mucor circinelloides [10]) was 6.7%. It also gave a viability at 48 h, 100 ug/ml [11] of 20.4%, an Activity (Mucor circinelloides [12]) of 2.5% and an MIC [13] of 125 µg/mL (≈ 375 µM). The Activity [14] was 1.18 U/mg, the Activity (Mucor circinelloides [15]) was “Active” and the Activity (Mucor circinelloides [16]) was “Active”. For the same compound, the MIC (Mucor circinelloides [17]) was 150 µg/mL (≈ 450 µM), the Activity (Mucor circinelloides [18]) was “Active” and the MIC (Trichophyton rubrum [19]) was 125 µg/mL (≈ 375 µM). For the same compound, the Activity [20] was 17.96 U/mg, the MIC (Nannizzia gypsea [21]) was 100 µg/mL (≈ 300 µM) and the Activity [22] was 6.76 U/mg. The Activity (Mucor circinelloides [23]) was “Active”, the viability at 48 h, 50 ug/ml [24] was 53.3% and the Activity (Mucor circinelloides [25]) was 38.5%. The Activity (Mucor circinelloides [26]) was 34.7%, the Activity (Mucor circinelloides [27]) was “Active” and the Activity (Mucor circinelloides [28]) was 74.2%. For the same compound, the MIC (Aspergillus nidulans [29]) was 150 µg/mL (≈ 450 µM), the MIC [30] was 125 µg/mL (≈ 375 µM) and the MIC (Nannizzia gypsea [31]) was 100 µg/mL (≈ 300 µM). The MIC (Aspergillus nidulans [32]) was 150 µg/mL (≈ 450 µM), the viability at 48 h, 200 ug/ml [33] was 12.6% and the Activity (Mucor circinelloides [34]) was 4.5%. For the same compound, the MIC [35] was 125 µg/mL (≈ 375 µM), the Activity (Mucor circinelloides [36]) was “Active” and the MIC (Microsporum canis [37]) was 100 µg/mL (≈ 300 µM). The Activity [38] was 13.12 U/mg, the Activity (Mucor circinelloides [39]) was 78.5% and the viability at 48 h, 25 ug/ml [40] was 90.7%.
